# Measured values taken from US7259004B1, “Endophytic streptomycetes from higher plants with biological activity” (Montana State University, priority 2002, dated 2007).
# Legend:
# [1] = tested on: gram positive bacteria including Staphylococcus species, Streptococcus pneumoniae, Enterococcus species, Bacillus subtilis, and Listeria monocytogenes; assay: activity against Gram positive bacteria (general statements); type: cell-based
# [2] = tested on: Escherichia coli ATCC 25922; assay: disk diffusion assay; type: cell-based; details: 10 micrograms per disk; penicillin G 10 units per disk; 35° C. Note: key: R = resistant.
# [3] = tested on: Human Primary Mammary Epithelial HMEC; assay: CellTiter 96 Aqueous Non-Radioactive Cell Proliferation Assay; type: cell-based; details: 48 hours; Table 7
# Procedure: (§1) The munumbicins were then tested against three human cancer cell lines (ATCC) and human primary mammary epithelial cells (HMECs) (Clonetics; Biowhittaker, Walkersville, Md.) using a CellTiter 96® Aqueous Non-Radioactive Cell Proliferation Assay kit from Promega (Madison, Wis.). The cell lines were A-549 (lung epithelial carcinoma, ATCC CCL-185), ME-180 (cervical epithelial epidermoid carcinoma, ATCC HTB-33), and BT-20 (breast epithelial cancer, ATCC HTB-19), and were grown in the media recommended by ATCC. The primary mammary cells were cultured as recommended by the manufacturer in mammary epithelial cell growth media (MEGM®). […] After seeding, the cells were incubated for five hours at 37° C. before addition of the munumbicins. Two-fold serial dilutions of the munumbicins were made in the culture medium, and a volume equal to that of the seeded cells for each dilution was added to three wells of cells. Each plate also contained some wells with cells plus medium only and some wells with medium only. […] The A-549 and ME-180 cells were incubated for 48 hours. […] The plates were incubated at 37° C. for one to four hours, and the OD490 was determined. The OD reading of all wells was corrected for background by subtracting the reading of wells containing medium only. […] Kakadumycin A was tested against three human cancer cell lines (ATCC) and human primary mammary epithelial cells using the procedure described above for the munumbicins. Kadadumycin B was tested against one human cancer cell line.
# [4] = tested on: Human Cervical Cancer Epithelial ME180; assay: as above; type: cell-based; details: 48 hours; Table 7
# Procedure: as §1
# [5] = tested on: Human Lung Cancer Epithelial A549; assay: as above; type: cell-based; details: 48 hours; Table 7
# Procedure: as §1
# [6] = tested on: Human Breast Cancer Epithelial BT-20; assay: as above; type: cell-based; details: 96-144 hours; Table 7
# Procedure: as §1
# [7] = tested on: Candida albicans ATCC 90028; assay: disk diffusion assay; type: cell-based; details: 10 micrograms per disk; 35° C. Note: key: R = resistant.
# Sclerotinia sclerotiorum = assay: microbroth dilution MIC, plant associated microorganisms; type: cell-based; details: PD broth, 48 hours at 23° C.
# Procedure: (§2) Incubation was for 48 hours at 23° C. A plant pathogenic strain of Pseudomonas syringae was also tested using the same PD broth medium and with concentrations of colony forming units as given above. The organisms were obtained from the Montana State University plant pathogen culture collection administered by Dr. […] The relative activities against plant pathogenic fungi ranged from a few tenths of a microgram up to thirty micrograms. Table 2 provides the results of tests of inhibitory activity of the munumbicins against various plant-pathogenic fungi and one pathogenic bacterium. The data are reported as MIC values in micrograms/ml.
# Pythium ultimum = assay: as above; type: cell-based; details: PD broth, 48 hours at 23° C.
# Procedure: as §2
# Pseudomonas syringae = assay: as above; type: cell-based; details: PD broth
# Procedure: as §2
# [8] = tested on: S. maltophilia ATCC 13637; assay: disk diffusion assay; type: cell-based, Stenotrophomas maltophilia; details: 10 micrograms per disk; 35° C.
# [9] = tested on: Pseudomonas aeruginosa ATCC 27853; assay: disk diffusion assay; type: cell-based; details: 10 micrograms per disk; ciprofloxacin 5, vancomycin 30 micrograms per disk; 35° C. Note: key: R = resistant.
# [10] = tested on: Candida albicans ATCC 24433; assay: disk diffusion assay; type: cell-based; details: 10 micrograms per disk; 35° C. Note: key: R = resistant.
# [11] = tested on: Streptococcus pneumoniae ATCC 49619; assay: disk diffusion assay; type: cell-based; details: 10 micrograms per disk; ciprofloxacin 5, vancomycin 30 micrograms per disk; MHA with 5% dsb. and 5% CO2
# [12] = tested on: Enterococcus faecalis ATCC 51299 (VRE); assay: microbroth dilution MIC; type: cell-based; details: resistant to vancomycin; first listing in Table 4
# [13] = tested on: Acinetobacter sp. ATCC 49137; assay: disk diffusion assay; type: cell-based; details: 10 micrograms per disk; ciprofloxacin 5, vancomycin 30 micrograms per disk; grown at 30° C.
# [14] = tested on: Enterococcus faecalis ATCC 51299; assay: disk diffusion assay; type: cell-based; details: 10 micrograms per disk; ciprofloxacin 5, vancomycin 30 micrograms per disk; 35° C.
# Bacillus anthracis K8902 = type: cell-based; details: 10 micrograms per disk; ciprofloxacin 5, vancomycin 30 micrograms per disk; 35° C.
# [15] = tested on: Neisseria gonnorhea ATCC 49226; assay: disk diffusion assay; type: cell-based; details: 10 micrograms per disk; ciprofloxacin 5, vancomycin 30 micrograms per disk; GC agar with 1% growth supplement with 5% CO2
# [16] = tested on: Candida parasdosis ATCC 90018; assay: disk diffusion assay; type: cell-based, Candida parapsilosis; details: 10 micrograms per disk; 35° C. Note: key: R = resistant.
# Vibrio fischeri PIC 345 = assay: disk diffusion assay; type: cell-based; details: 10 micrograms per disk; ciprofloxacin 5, vancomycin 30 micrograms per disk; 35° C.
# [17] = tested on: Plasmodium falciparum strain CSC-1 (Honduras); assay: antimalarial assay, 3H-phenylalanine radiobioassay in human red blood cells; details: human red blood cells, 3H-phenylalanine; standard deviation of the mean, three experiments
# [18] = tested on: Candida glabrata ATCC 2001; assay: disk diffusion assay; type: cell-based; details: 10 micrograms per disk; 35° C. Note: key: R = resistant.
# [19] = tested on: Candida parasilosis ATCC 22019; assay: disk diffusion assay; type: cell-based, Candida parapsilosis; details: 10 micrograms per disk; 35° C. Note: key: R = resistant.
# [20] = tested on: Candida tropicalis ATCC 750; assay: disk diffusion assay; type: cell-based; details: 10 micrograms per disk; 35° C. Note: key: R = resistant.
# [21] = tested on: Staphylococcus aureus ATCC 29213; assay: disk diffusion assay; type: cell-based; details: 10 micrograms per disk; ciprofloxacin 5, vancomycin 30 micrograms per disk; 35° C.
# [22] = tested on: Staphylococcus aureus ATCC 33591 (MRSA); assay: microbroth dilution MIC; type: cell-based; details: methicillin resistant strain; first listing in Table 4
# Cryptococcus neoformans = assay: microbroth dilution MIC
# S. epidermis ATCC 12228 = assay: disk diffusion assay; type: cell-based, Staphylococcus epidermidis; details: 10 micrograms per disk; 35° C.
# [23] = tested on: Enterococcus faecalis ATCC 29212; assay: disk diffusion assay; type: cell-based; details: 10 micrograms per disk; ciprofloxacin 5, vancomycin 30 micrograms per disk; 35° C.
# [24] = tested on: Shigella dysenteriae ATCC 11835; assay: disk diffusion assay; type: cell-based; details: 10 micrograms per disk; 35° C.
# Aspergillus fumigatus = assay: microbroth dilution MIC
# Candida krusei ATCC 6258 = assay: disk diffusion assay; type: cell-based; details: 10 micrograms per disk; 35° C.
# brine shrimp = brine shrimp assays; details: preliminary assays
substance,measurement,setting,value
munumbicin A,activity against Gram positive bacteria incl. drug resistant strains (in words),[1],shows activity
same,"diameter of the zone of inhibition, Escherichia coli ATCC 25922",[2],R
same,IC50 Human Primary Mammary Epithelial HMEC,[3],0.331 micrograms/ml
same,IC50 Human Cervical Cancer Epithelial ME180,[4],0.51 micrograms/ml
same,IC50 Human Lung Cancer Epithelial A549,[5],1 micrograms/ml
same,IC50 Human Breast Cancer Epithelial BT-20,[6],0.19 micrograms/ml
same,"diameter of the zone of inhibition, Candida albicans ATCC 90028",[7],R
same,MIC Sclerotinia sclerotiorum,Sclerotinia sclerotiorum,8.0 micrograms/ml
same,MIC Pythium ultimum,Pythium ultimum,2.0 micrograms/ml
same,MIC Pseudomonas syringae,Pseudomonas syringae,15.6 micrograms/ml
same,"diameter of the zone of inhibition, S. maltophilia ATCC 13637",[8],R
same,"diameter of the zone of inhibition, Pseudomonas aeruginosa ATCC 27853",[9],R
same,"diameter of the zone of inhibition, Candida albicans ATCC 24433",[10],R
same,"diameter of the zone of inhibition, Streptococcus pneumoniae ATCC 49619",[11],R
same,MIC Enterococcus faecalis ATCC 51299,[12],8 micrograms/ml
same,"diameter of the zone of inhibition, Acinetobacter sp. ATCC 49137",[13],R
same,"diameter of the zone of inhibition, Enterococcus faecalis ATCC 51299",[14],R
same,"diameter of the zone of inhibition, Bacillus anthracis K8902",Bacillus anthracis K8902,9.5 mm
same,"diameter of the zone of inhibition, Neisseria gonnorhea ATCC 49226",[15],9 mm
same,"diameter of the zone of inhibition, Candida parasdosis ATCC 90018",[16],R
same,"diameter of the zone of inhibition, Vibrio fischeri PIC 345",Vibrio fischeri PIC 345,R
same,IC50 Plasmodium falciparum,[17],0.175 ± 0.106 µg/mL
same,"diameter of the zone of inhibition, Candida glabrata ATCC 2001",[18],R
same,"diameter of the zone of inhibition, Candida parasilosis ATCC 22019",[19],R
same,"diameter of the zone of inhibition, Candida tropicalis ATCC 750",[20],R
same,"diameter of the zone of inhibition, Staphylococcus aureus ATCC 29213",[21],R
same,MIC Staphylococcus aureus ATCC 33591,[22],not active
same,MIC Cryptococcus neoformans,Cryptococcus neoformans,10 micrograms/ml
same,"diameter of the zone of inhibition, S. epidermis ATCC 12228",S. epidermis ATCC 12228,9 mm
same,"diameter of the zone of inhibition, Enterococcus faecalis ATCC 29212",[23],R
same,"diameter of the zone of inhibition, Shigella dysenteriae ATCC 11835",[24],R
same,MIC Aspergillus fumigatus,Aspergillus fumigatus,20 micrograms/ml
same,"diameter of the zone of inhibition, Candida krusei ATCC 6258",Candida krusei ATCC 6258,R
same,LC50 brine shrimp,brine shrimp,3.3 micrograms/ml
